Results: US9316913B2, “Underlayer film-forming material for lithography, underlayer film for lithography, and pattern formation method” (MITSUBISHI GAS CHEMICAL COMPANY, INC., priority 2011, dated 2016)

Legend:
[1] = Solubility in PGME and PGMEA; type: physicochemical; details: 23° C.
Procedure: Herein, the solubility in PGME or PGMEA is defined as “Mass of resin/(Mass of resin+Mass of solvent)×100 (% by mass)”.
The amount of each compound dissolved in 1-methoxy-2-propanol (PGME) and propylene glycol monomethyl ether acetate (PGMEA) was measured at 23° C., and the results were evaluated according to the following criteria.
Evaluation A: 10% by weight or more
Evaluation B: 3% by weight or more and less than 10% by weight
Evaluation C: less than 3% by weight

Pyrolysis temperature = type: physicochemical; details: thermogravimetric measurement (TG); nitrogen stream, 10° C./min
Procedure: An EXSTAR 6000 DSC apparatus manufactured by SII NanoTechnology Inc. was used, and about 5 mg of a sample was placed in an unsealed aluminum container and heated to 500° C. at a rate of temperature rise of 10° C./min in a nitrogen gas (30 ml/min) stream. In this time, a temperature at which a reducing portion appeared on the base line was defined as a pyrolysis temperature (Tg).

solubility in PGME and PGMEA ([1]; 1-methoxy-2-propanol (PGME) and propylene glycol monomethyl ether acetate (PGMEA))	pyrolysis temperature (Pyrolysis temperature)	Structure (SMILES)	solubility in PGME and PGMEA (Evaluation) [1]
≥ 20 % by weight	410 °C	Oc1ccc2c3c(ccc2c1)Oc1ccc2cc(O)ccc2c1C3c1ccc(-c2ccccc2)cc1 [BisN-1]	A (10% by weight or more)
–	410 °C	Oc1ccc2ccc3c(c2c1)C(c1ccc(-c2ccccc2)cc1)c1c(ccc2ccc(O)cc12)O3 [BisN-2]	B (3% by weight or more and less than 10% by weight)
–	410 °C	Oc1cccc2c3c(ccc12)C(c1ccc(-c2ccccc2)cc1)c1ccc2c(O)cccc2c1O3 [BisN-3]	B (3% by weight or more and less than 10% by weight)
–	410 °C	Oc1cccc2c3c(ccc12)Oc1ccc2c(O)cccc2c1C3c1ccc(-c2ccccc2)cc1 [BisN-4]	B (3% by weight or more and less than 10% by weight)
–	410 °C	Oc1ccc2ccc3c(c2c1)Oc1c(ccc2ccc(O)cc12)C3c1ccc(-c2ccccc2)cc1 [BisN-5]	B (3% by weight or more and less than 10% by weight)
–	410 °C	Oc1cc2ccccc2c2c1Oc1c(O)cc3ccccc3c1C2c1ccc(-c2ccccc2)cc1 [BisN-6]	B (3% by weight or more and less than 10% by weight)
–	415 °C	Oc1ccc2c3c(ccc2c1)Oc1ccc2cc(O)ccc2c1C3c1cccc2ccccc12 [BisN-7]	B (3% by weight or more and less than 10% by weight)
–	400 °C	Oc1ccc2c3c(ccc2c1)Oc1ccc2cc(O)ccc2c1C31CCCCC1 [BisN-10]	B (3% by weight or more and less than 10% by weight)
–	450 °C	Oc1ccc2c3c(ccc2c1)Oc1ccc2cc(O)ccc2c1C31c2ccccc2-c2ccccc21 [BisN-11]	B (3% by weight or more and less than 10% by weight)
–	410 °C	Oc1ccc2c3c(ccc2c1)Oc1ccc2cc(O)ccc2c1C3c1ccc(C2c3c(ccc4cc(O)ccc34)Oc3ccc4cc(O)ccc4c32)cc1 [BisN-12]	B (3% by weight or more and less than 10% by weight)
–	410 °C	Oc1ccc2c3c(ccc2c1)Oc1ccc2cc(O)ccc2c1C3c1ccc(-c2ccc(C3c4c(ccc5cc(O)ccc45)Oc4ccc5cc(O)ccc5c43)cc2)cc1 [BisN-13]	B (3% by weight or more and less than 10% by weight)
–	410 °C	Oc1ccc2c3c(ccc2c1)Oc1ccc2cc(O)ccc2c1C3c1cc(C2c3c(ccc4cc(O)ccc34)Oc3ccc4cc(O)ccc4c32)cc(C2c3c(ccc4cc(O)ccc34)Oc3ccc4cc(O)ccc4c32)c1 [BisN-14]	B (3% by weight or more and less than 10% by weight)

Structure (SMILES)	solubility in PGME and PGMEA ([1]; 1-methoxy-2-propanol (PGME) and propylene glycol monomethyl ether acetate (PGMEA))	pyrolysis temperature (Pyrolysis temperature)	solubility in PGME and PGMEA (Evaluation) [1]
Oc1ccc2c3c(ccc2c1)Oc1ccc2cc(O)ccc2c1C3c1cc2ccccc2c2ccccc12 [BisN-8]	–	415 °C	B (3% by weight or more and less than 10% by weight)
Oc1ccc2c3c(ccc2c1)Oc1ccc2cc(O)ccc2c1C3c1ccc2ccc3cccc4ccc1c2c34 [BisN-9]	–	420 °C	B (3% by weight or more and less than 10% by weight)
